Results as given in ChEMBL document CHEMBL3046559, “Sterile oat (Avena sterilis L.) cross-resistance profile to ACCase-inhibiting herbicides in Greece” (2012).

What was measured:
Type in all cases: functional
Avena sterilis [1] = assay: Herbicidal activity against Avena sterilis accession P13S assessed as induction of weed mortality
Avena sterilis [2] = assay: Herbicidal activity against Avena sterilis accession P08 assessed as weed survival at 1 times field recommended herbicide dose
Avena sterilis [3] = assay: Herbicidal activity against Avena sterilis accession P20 assessed as induction of weed mortality
Avena sterilis [4] = assay: Herbicidal activity against Avena sterilis accession P15 assessed as weed survival at 4 times field recommended herbicide dose
Avena sterilis [5] = assay: Herbicidal activity against Avena sterilis accession P12 assessed as weed survival at 4 times field recommended herbicide dose
Avena sterilis [6] = assay: Herbicidal activity against Avena sterilis accession P11 assessed as weed survival at 8 times field recommended herbicide dose
Avena sterilis [7] = assay: Herbicidal activity against Avena sterilis accession P16 assessed as induction of weed mortality
Avena sterilis [8] = assay: Herbicidal activity against Avena sterilis accession P20 assessed as weed survival at 8 times field recommended herbicide dose
Avena sterilis [9] = assay: Herbicidal activity against Avena sterilis accession P11 assessed as weed survival at 4 times field recommended herbicide dose
Avena sterilis [10] = assay: Herbicidal activity against Avena sterilis accession P01 assessed as weed survival at 8 times field recommended herbicide dose
Avena sterilis [11] = assay: Herbicidal activity against Avena sterilis accession P02 assessed as induction of weed mortality
Avena sterilis [12] = assay: Herbicidal activity against Avena sterilis accession P15 assessed as weed survival at 8 times field recommended herbicide dose
Avena sterilis [13] = assay: Herbicidal activity against Avena sterilis accession P10S assessed as weed survival at 1/16 times field recommended herbicide dose
Avena sterilis [14] = assay: Herbicidal activity against Avena sterilis accession P13S assessed as weed survival at 1/8 times field recommended herbicide dose
Avena sterilis [15] = assay: Herbicidal activity against Avena sterilis accession P11 assessed as weed survival at 32 times field recommended herbicide dose
Avena sterilis [16] = assay: Herbicidal activity against Avena sterilis accession P12 assessed as weed survival at 16 times field recommended herbicide dose
Avena sterilis [17] = assay: Herbicidal activity against Avena sterilis accession P14 assessed as weed survival at 1 times field recommended herbicide dose
Avena sterilis [18] = assay: Herbicidal activity against Avena sterilis accession P08 assessed as induction of weed mortality
Avena sterilis [19] = assay: Herbicidal activity against Avena sterilis accession P14 assessed as weed survival at 4 times field recommended herbicide dose
Avena sterilis [20] = assay: Herbicidal activity against Avena sterilis accession P07 assessed as induction of weed mortality
Avena sterilis [21] = assay: Herbicidal activity against Avena sterilis accession P08 assessed as weed survival at 16 times field recommended herbicide dose
Avena sterilis [22] = assay: Herbicidal activity against Avena sterilis accession P16 assessed as weed survival at 1 times field recommended herbicide dose
Avena sterilis [23] = assay: Herbicidal activity against Avena sterilis accession P11 assessed as weed survival at 1 times field recommended herbicide dose
Avena sterilis [24] = assay: Herbicidal activity against Avena sterilis accession P01 assessed as weed survival at 4 times field recommended herbicide dose
Avena sterilis [25] = assay: Herbicidal activity against Avena sterilis accession P16 assessed as weed survival at 8 times field recommended herbicide dose
Avena sterilis [26] = assay: Herbicidal activity against Avena sterilis accession P20 assessed as weed survival at 4 times field recommended herbicide dose
Avena sterilis [27] = assay: Herbicidal activity against Avena sterilis accession P16 assessed as weed survival at 32 times field recommended herbicide dose
Avena sterilis [28] = assay: Herbicidal activity against Avena sterilis accession P09 assessed as weed survival at 32 times field recommended herbicide dose
Avena sterilis [29] = assay: Herbicidal activity against Avena sterilis accession P13S assessed as weed survival at 1/4 times field recommended herbicide dose
Avena sterilis [30] = assay: Herbicidal activity against Avena sterilis accession P09 assessed as weed survival at 4 times field recommended herbicide dose
Avena sterilis [31] = assay: Herbicidal activity against Avena sterilis accession P03 assessed as weed survival at 4 times field recommended herbicide dose
Avena sterilis [32] = assay: Herbicidal activity against Avena sterilis accession P13S assessed as weed survival at 1 times field recommended herbicide dose
Avena sterilis [33] = assay: Herbicidal activity against Avena sterilis accession P07 assessed as weed survival at 4 times field recommended herbicide dose
Avena sterilis [34] = assay: Herbicidal activity against Avena sterilis accession P13S assessed as weed survival at 1/32 times field recommended herbicide dose
Avena sterilis [35] = assay: Herbicidal activity against Avena sterilis accession P03 assessed as weed survival at 32 times field recommended herbicide dose
Avena sterilis [36] = assay: Herbicidal activity against Avena sterilis accession P17 assessed as weed survival at 32 times field recommended herbicide dose
Avena sterilis [37] = assay: Herbicidal activity against Avena sterilis accession P02 assessed as weed survival at 16 times field recommended herbicide dose
Avena sterilis [38] = assay: Herbicidal activity against Avena sterilis accession P06S assessed as weed survival at 1 times field recommended herbicide dose
Avena sterilis [39] = assay: Herbicidal activity against Avena sterilis accession P01 assessed as weed survival at 32 times field recommended herbicide dose
Avena sterilis [40] = assay: Herbicidal activity against Avena sterilis accession P10S assessed as weed survival at 1/4 times field recommended herbicide dose
Avena sterilis [41] = assay: Herbicidal activity against Avena sterilis accession P02 assessed as weed survival at 4 times field recommended herbicide dose
Avena sterilis [42] = assay: Herbicidal activity against Avena sterilis accession P03 assessed as weed survival at 1 times field recommended herbicide dose
Avena sterilis [43] = assay: Herbicidal activity against Avena sterilis accession P08 assessed as weed survival at 8 times field recommended herbicide dose
Avena sterilis [44] = assay: Herbicidal activity against Avena sterilis accession P10S assessed as weed survival at 1/8 times field recommended herbicide dose
Avena sterilis [45] = assay: Herbicidal activity against Avena sterilis accession P04 assessed as weed survival at 16 times field recommended herbicide dose
Avena sterilis [46] = assay: Herbicidal activity against Avena sterilis accession P11 assessed as induction of weed mortality
Avena sterilis [47] = assay: Herbicidal activity against Avena sterilis accession P14 assessed as weed survival at 8 times field recommended herbicide dose
Avena sterilis [48] = assay: Herbicidal activity against Avena sterilis accession P01 assessed as induction of weed mortality
Avena sterilis [49] = assay: Herbicidal activity against Avena sterilis accession P02 assessed as weed survival at 8 times field recommended herbicide dose
Avena sterilis [50] = assay: Herbicidal activity against Avena sterilis accession P05 assessed as weed survival at 4 times field recommended herbicide dose
Avena sterilis [51] = assay: Herbicidal activity against Avena sterilis accession P21S assessed as weed survival at 1/32 times field recommended herbicide dose
Avena sterilis [52] = assay: Herbicidal activity against Avena sterilis accession P20 assessed as weed survival at 1 times field recommended herbicide dose
Avena sterilis [53] = assay: Herbicidal activity against Avena sterilis accession P22 assessed as weed survival at 4 times field recommended herbicide dose
Avena sterilis [54] = assay: Herbicidal activity against Avena sterilis accession P22 assessed as weed survival at 8 times field recommended herbicide dose
Avena sterilis [55] = assay: Herbicidal activity against Avena sterilis accession P19S assessed as weed survival at 1/32 times field recommended herbicide dose
Avena sterilis [56] = assay: Herbicidal activity against Avena sterilis accession P20 assessed as weed survival at 32 times field recommended herbicide dose
Avena sterilis [57] = assay: Herbicidal activity against Avena sterilis accession P09 assessed as induction of weed mortality
Avena sterilis [58] = assay: Herbicidal activity against Avena sterilis accession P22 assessed as weed survival at 1 times field recommended herbicide dose

COCc1cnc(C2=NC(C)(C(C)C)C(=O)N2)c(C(=O)O)c1 (stereo not drawn) [IMAZAMOX]
GR50 (Avena sterilis [1]): 8 gAi/ha
Survival (Avena sterilis [2]): 3%
GR50 (Avena sterilis [3]): <50 gAi/ha
Survival (Avena sterilis [4]): 0%
Survival (Avena sterilis [5]): 0%
Survival (Avena sterilis [6]): 0%
GR50 (Avena sterilis [7]): <50 gAi/ha
Survival (Avena sterilis [8]): 0%
Survival (Avena sterilis [9]): 0%
Survival (Avena sterilis [10]): 0%
GR50 (Avena sterilis [11]): <50 gAi/ha
Survival (Avena sterilis [12]): 0%
Survival (Avena sterilis [13]): 80%
Survival (Avena sterilis [14]): 50%
Survival (Avena sterilis [15]): 0%
Survival (Avena sterilis [16]): 0%
Survival (Avena sterilis [17]): 0%
GR50 (Avena sterilis [18]): <50 gAi/ha
Survival (Avena sterilis [19]): 0%
GR50 (Avena sterilis [20]): <50 gAi/ha
Survival (Avena sterilis [21]): 0%
Survival (Avena sterilis [22]): 0%
Survival (Avena sterilis [23]): 0%
Survival (Avena sterilis [24]): 0%
Survival (Avena sterilis [25]): 0%
Survival (Avena sterilis [26]): 0%
Survival (Avena sterilis [27]): 0%
Survival (Avena sterilis [28]): 0%
Survival (Avena sterilis [29]): 40%
Survival (Avena sterilis [30]): 0%
Survival (Avena sterilis [31]): 0%
Survival (Avena sterilis [32]): 0%
Survival (Avena sterilis [33]): 0%
Survival (Avena sterilis [34]): 100%
Survival (Avena sterilis [35]): 0%
Survival (Avena sterilis [36]): 0%
Survival (Avena sterilis [37]): 0%
Survival (Avena sterilis [38]): 0%
Survival (Avena sterilis [39]): 0%
Survival (Avena sterilis [40]): 20%
Survival (Avena sterilis [41]): 0%
Survival (Avena sterilis [42]): 0%
Survival (Avena sterilis [43]): 0%
Survival (Avena sterilis [44]): 60%
Survival (Avena sterilis [45]): 0%
GR50 (Avena sterilis [46]): <50 gAi/ha
Survival (Avena sterilis [47]): 0%
GR50 (Avena sterilis [48]): <50 gAi/ha
Survival (Avena sterilis [49]): 0%
Survival (Avena sterilis [50]): 0%
Survival (Avena sterilis [51]): 100%
Survival (Avena sterilis [52]): 0%
Survival (Avena sterilis [53]): 0%
Survival (Avena sterilis [54]): 0%
Survival (Avena sterilis [55]): 100%
Survival (Avena sterilis [56]): 0%
GR50 (Avena sterilis [57]): <50 gAi/ha
Survival (Avena sterilis [58]): 0%
